Patent US20090061027A1, “Composition For The Prevention and Treatment Of Common Cold Diseases” (priority 2006, published 2009)

Test system: A549 cells
Test: Examination of the apoptotic caspase activation (Western Blot, PARP cleaving)
Type: cell-based
Conditions: 48 hours, extract 25 and 50 μg/ml, staurosporine as positive control stimulus
Experimental: To examine the apoptotic caspase activation, A549 cells were treated with 25 and 50 μg/ml of the extract for 48 hours. The cells were then lysed, and the cellular proteins were separated using gel electrophoresis and examined in the Western Blot with an antiPARP antibody (Poly(ADP-Ribose) polymerase, caspase substrate) for the apoptotic cleaving of this protein by caspases. The apoptosis-inductor staurosporine served as the positive control stimulus. The experiments were conducted in two parallel batches.

SMILES: CN[C@@H]1C[C@H]2O[C@@](C)([C@@H]1OC)n1c3ccccc3c3c4c(c5c6ccccc6n2c5c31)C(=O)NC4 [staurosporine]
- caspase activation / apoptotic cleaving of PARP: efficient cleaving of the caspase substrate
